assay: recombinant barcode read abundance after kanamycin selection (control-corrected) (log10(CPM+1)); higher = more efficient recombination; sequences stand for … in AGTGCAGAGAAAATCGGCCAGTTTTCTCTGCCTGCAGTCCGCATGCCGT…AGATTTATGCAGCGGACTGCCTTTCTCCCAAAGTGATAAACCGGACAGTATCATGGACCGGTTTTCCCGGTAATCCGTATTTGCAAGGTTGGTTTCACT; site = the 11-nt target
How it was run: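 This pooled E. coli screen matched targets with IS621 bridge RNA target-binding loops. Plating was done in duplicate on chloramphenicol/ampicillin LB agar as a control and on chloramphenicol/ampicillin/kanamycin plus 0.1 mM IPTG. Recombination efficiency reflects barcode counts at recombinant junctions as counts per million, averaged and control-corrected. The figures are log10(CPM+1).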
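Note: IS621 recombinase and bridge RNA in Escherichia coli cells.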

Row | Sequence | recombinant barcode read abundance (log10)
1 | TAGGGCACTTGGGTTCTAACCTGTTGCTA (site TAGGCGACTTA) | 0.875
2 | TAGGGCACTTGGGTTCTAACCTGTTGCTA (site TAGGGCACTTA) | 1.44
3 | TAGGGTCCTTGGGTTCTAACCTGTTGCGG (site TAAGGTCCTCT) | 1.35
4 | TAGGGTCCTTGGGTTCTAACCTGTTGCGG (site TAGGGTCCTCC) | 2.88
5 | TAGGGTTCTTGGGTTCTAACCTGTTGCGG (site CAGGGTCCTCC) | 0.0906
6 | TAGGGTTCTTGGGTTCTAACCTGTTGCGG (site TAGGGTTCTCC) | 3.01
7 | TAGGTCACTTGGGTTCTAACCTGTTGCAT (site TAGATCACTAT) | 0.337
8 | TAGGTCACTTGGGTTCTAACCTGTTGCAT (site TAGCTCACTAT) | 0.0353
9 | TAGGTCACTTGGGTTCTAACCTGTTGCAT (site TAGGTCACTAT) | 2.43
10 | TAGGTCACTTGGGTTCTAACCTGTTGCAT (site TAGTTCACTAT) | 0.0621
11 | TAGTAACCTTGGGTTCTAACCTGTTGCTT (site TAGTAACCTAA) | 0.683
12 | TAGTAACCTTGGGTTCTAACCTGTTGCTT (site TAGTACCCTCA) | 0.0923
13 | TAGTACTCTTGGGTTCTAACCTGTTGCTC (site TAGTACTCTAA) | 0.096
14 | TAGTACTCTTGGGTTCTAACCTGTTGCTC (site TAGTACTCTCA) | 0.429
15 | TAGTACTCTTGGGTTCTAACCTGTTGCTC (site TAGTACTCTGA) | 1.52
16 | TAGTACTCTTGGGTTCTAACCTGTTGCTC (site TAGTACTCTTA) | 0.124
17 | TAGTATACTTGGGTTCTAACCTGTTGCTG (site TAGTATACTCA) | 1.16
18 | TAGTATACTTGGGTTCTAACCTGTTGCTG (site TCGTATACTCC) | 0.0803
19 | TAGTATCCTTGGGTTCTAACCTGTTGCCT (site TAGTAAGCTAG) | 0.433
20 | TAGTATCCTTGGGTTCTAACCTGTTGCCT (site TAGTATCCTAG) | 1.04
21 | TAGTATGCTTGGGTTCTAACCTGTTGCTA (site TAGTATCCTTA) | 0.0173
22 | TAGTATGCTTGGGTTCTAACCTGTTGCTA (site TAGTATGCTTA) | 1.39

Row | Sequence | recombinant barcode read abundance (log10)
23 | TAGTCAACTTGGGTTCTAACCTGTTGCGT (site TAGTCAACTAC) | 0.593
24 | TAGTCAACTTGGGTTCTAACCTGTTGCGT (site TGGCCAACTAC) | 0.0928
25 | TAGTCAGCTTGGGTTCTAACCTGTTGCAC (site TAGTCAGCTGT) | 1.2
26 | TAGTCAGCTTGGGTTCTAACCTGTTGCAC (site TGGTCGGCTGT) | 0.00985
27 | TAGTCCTCTTGGGTTCTAACCTGTTGCTA (site TAGTCCTCTAA) | 0.0289
28 | TAGTCCTCTTGGGTTCTAACCTGTTGCTA (site TAGTCCTCTCA) | 0.0797
29 | TAGTCCTCTTGGGTTCTAACCTGTTGCTA (site TAGTCCTCTGA) | 0.0492
30 | TAGTCCTCTTGGGTTCTAACCTGTTGCTA (site TAGTCCTCTTA) | 1.05
31 | TAGTCCTCTTGGGTTCTAACCTGTTGCTC (site TAGTCCTCTAA) | 0.0149
32 | TAGTCCTCTTGGGTTCTAACCTGTTGCTC (site TAGTCCTCTCA) | 0.0708
33 | TAGTCCTCTTGGGTTCTAACCTGTTGCTC (site TAGTCCTCTGA) | 0.935
34 | TAGTCCTCTTGGGTTCTAACCTGTTGCTC (site TAGTCCTCTTA) | 0.118
35 | TAGTGAACTTGGGTTCTAACCTGTTGCAC (site GCCGAGCCTTG) | 0.0124
36 | TAGTGAACTTGGGTTCTAACCTGTTGCAC (site TAGTGAACTGT) | 0.347
37 | TAGTGCTCTTGGGTTCTAACCTGTTGCCA (site TAGTGCTCTAG) | 0.444
38 | TAGTGCTCTTGGGTTCTAACCTGTTGCCA (site TAGTGCTCTCG) | 0.0477
39 | TAGTGCTCTTGGGTTCTAACCTGTTGCCA (site TAGTGCTCTGG) | 0.00954
40 | TAGTGCTCTTGGGTTCTAACCTGTTGCCA (site TAGTGCTCTTG) | 1.16
41 | TAGTGCTCTTGGGTTCTAACCTGTTGCCG (site TAGTGCTCTAG) | 0.595
42 | TAGTGCTCTTGGGTTCTAACCTGTTGCCG (site TAGTGCTCTCG) | 1.24
43 | TAGTGCTCTTGGGTTCTAACCTGTTGCCG (site TAGTGCTCTGG) | 0.0187

Reference: the supplement of paper PMC11208160
